Columns and labels:
[1] = molecular target: m-calpain (derived from porcine kidney) (Sus scrofa, UniProt I3LQD3); experiment: Measurement of inhibitory activity against m-calpain; type: biochemical; conditions: casein substrate, 30° C., 60 minutes; read-out: enzyme inhibitory activities (μM) m-calpain
Protocol: More specifically, 200 μL of a reaction solution containing 0.5 mg/mL casein, 50 mM Tris-HCl buffer (pH 7.4), 20 mM dithiothreitol and 1.0 nmol μ-calpain (derived from human red blood cells, Cosmo Bio Co., Ltd.) or m-calpain (derived from porcine kidney, Cosmo Bio Co., Ltd.) was added to individual 2.5 μL portions of DMSO solution containing a varying concentration of a test sample in a 96-well plate. Then, 50 μL of 20 mM aqueous calcium chloride was added thereto, and reaction was performed at 30° C. for 60 minutes. 100 μL of the reaction solution was transferred to another 96-well plate, and purified water (50 μL) and 50% aqueous solution (100 μL) of Protein Assay Dye Reagent (available from Bio-Rad Laboratories, Inc.; catalogue No. 500-600) were added thereto. […] The absorbance of a reaction mixture prepared in the same manner as mentioned above, except that a DMSO solution containing no sample was used as a control value; and the absorbance of a reaction mixture prepared in the same manner as mentioned above, except that a 1 mM aqueous EDTA solution (50 μL) was used in place of 20 mM aqueous calcium chloride, was used as a blank value. […] Inhibition rate (%){1−(measured value−blank test value)/(control value−blank test value)}×100

[2] = tested on: fibroblasts derived from human lissencephaly patient (Lis1 +/−); experiment: Protein quantitative analysis (western blotting) in human fibroblasts; type: cell-based; conditions: final SNJ-1945 concentration=200μ, 2-hour culture, FIGS. 21 and 22
Protocol: In a clean bench, the cells were placed in a 6-well plate in an amount of 3×10^5 cells per well and cultured for 16 hours, thereby adhering the cells to each well. The culture medium in the well was discarded, and the SNJ-1945-containing culture solution (the culture solution containing SNJ-1945-dissolved in Dimethyl Sulfoxide (Sigma, D-5879); final SNJ-1945 concentration=200μ) was added in an amount of 2 ml/well, and a 2-hour culture was performed. As a control, another culture was performed using a culture medium containing the same amount of Dimethyl Sulfoxide (Sigma, D-5879).
After 2-hour culture by adding SNJ-1945, the cells were washed twice with PBS (−), 500 μl of PBS (−), was added and the cells were scraped with a cell scraper. The scraped cells were collected to a 1.5 ml tube to be subjected to centrifugation for 5 minutes at 4° C. and 15000 rpm; the supernatant was discarded, and a cell precipitate was obtained. […]
The absorbency of the cell extract was measured, and the protein amount of the entire solution was determined. […] The absorbency at 595 nm was measured using an ARVO Sx (PerkinElmer) 96-well plate reader, and the entire protein amount was determined.
Then, SDS-PAGE was conducted. […] Based on the protein amount determined by the Bradford method, the cells were loaded to each well of the gel in an amount of 10 μg/well. […]

m-calpain (derived from porcine kidney), sequence (I3LQD3 entry or part of it): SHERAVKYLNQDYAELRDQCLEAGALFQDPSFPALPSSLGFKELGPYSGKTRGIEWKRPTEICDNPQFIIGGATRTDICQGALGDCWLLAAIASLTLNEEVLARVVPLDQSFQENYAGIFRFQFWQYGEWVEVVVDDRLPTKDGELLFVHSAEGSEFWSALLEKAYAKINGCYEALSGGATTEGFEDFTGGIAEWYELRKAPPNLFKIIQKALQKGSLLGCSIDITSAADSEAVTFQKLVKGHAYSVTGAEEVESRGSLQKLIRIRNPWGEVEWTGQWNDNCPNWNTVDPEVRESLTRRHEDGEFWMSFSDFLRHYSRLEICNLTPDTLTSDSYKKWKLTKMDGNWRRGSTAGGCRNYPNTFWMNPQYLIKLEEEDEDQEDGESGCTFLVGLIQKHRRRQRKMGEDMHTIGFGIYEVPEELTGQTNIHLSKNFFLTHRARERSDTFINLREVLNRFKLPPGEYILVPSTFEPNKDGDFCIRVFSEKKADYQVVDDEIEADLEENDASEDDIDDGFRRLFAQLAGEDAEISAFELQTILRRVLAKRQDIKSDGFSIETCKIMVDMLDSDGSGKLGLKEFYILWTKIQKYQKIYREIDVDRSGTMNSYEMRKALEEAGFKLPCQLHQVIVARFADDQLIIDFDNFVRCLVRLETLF
m-calpain (derived from porcine kidney), sequence (P04574 whole entry, further chain): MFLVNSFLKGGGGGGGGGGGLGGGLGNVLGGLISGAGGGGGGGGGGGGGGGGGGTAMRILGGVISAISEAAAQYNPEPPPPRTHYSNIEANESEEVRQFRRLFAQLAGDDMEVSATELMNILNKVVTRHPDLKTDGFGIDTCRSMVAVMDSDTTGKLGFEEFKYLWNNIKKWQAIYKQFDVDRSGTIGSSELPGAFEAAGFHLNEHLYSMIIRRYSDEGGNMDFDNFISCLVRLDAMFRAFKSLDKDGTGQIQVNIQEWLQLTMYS

COCCOCCOC(=O)N[C@@H](CC(C)C)C(=O)N[C@@H](Cc1ccccc1)C(=O)C(=O)NC1CC1 [compound 17, ((1S)-1-((((1S)-1-Benzyl-2,3-dioxo-3-(cyclopropylamino)propyl)amino)carbonyl)-3-methylbutyl)carbamic acid 5-methoxy-3-oxapentyl ester]
IC50 [1]: 0.1 µM | LIS1 amount (western blotting) [2]: recovered nearly to the extent of the LIS1 level | amount of cytoplasmatic dynein intermediate chain (western blotting) [2]: also increased
